Measurements as given in US6821980B1, “Substituted 5-benzyl-2,4-diaminopyrimidines” (Basilea Pharmaceutica AG, priority 1999, dated 2004).
Converted amounts (≈) assume the structure as drawn. Like-named read-outs stand apart in the source and are kept apart here.

How the values were obtained:
[1] = target: T1, purified DHFR of strain Sp1/1 of Streptococcus pneumoniae (Streptococcus pneumoniae serotype 4, UniProt Q54801); format: biochemical; conditions: Table 2; IC50 against purified DHFR of strain Sp1/1
T1 sequence (Q54801 1-168 I100L): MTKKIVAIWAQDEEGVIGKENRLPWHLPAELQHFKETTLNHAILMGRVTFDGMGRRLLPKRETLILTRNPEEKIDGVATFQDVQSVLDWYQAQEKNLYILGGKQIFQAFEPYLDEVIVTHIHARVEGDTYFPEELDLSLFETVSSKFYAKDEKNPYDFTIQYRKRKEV

[2] = test system: Staphylococcus aureus 101; assay: MIC against Staphylococcus aureus 101; format: cell-based; conditions: Table 2, Staphylococcus aureus 101, MRSA- and trimethoprim-resistant, clinical isolate; for MIC: read-out: MIC Sa101
[3] = target: purified DHFR of strain 157/4696 of Staphylococcus aureus (Staphylococcus aureus, UniProt P13955); assay: biochemical
purified DHFR of strain 157/4696 of Staphylococcus aureus, sequence (P13955 whole entry): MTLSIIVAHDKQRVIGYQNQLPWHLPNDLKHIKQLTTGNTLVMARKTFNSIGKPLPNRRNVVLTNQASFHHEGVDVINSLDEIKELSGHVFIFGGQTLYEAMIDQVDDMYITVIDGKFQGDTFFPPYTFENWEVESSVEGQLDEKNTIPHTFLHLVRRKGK

[4] = test system: Streptococcus pneumoniae 1/1; assay: MIC against Streptococcus pneumoniae 1/1; format: cell-based; conditions: Table 2, Streptococcus pneumoniae 1/1, trimethoprim- and penicillin-resistant, serotype 6, clinical isolate; for MIC: read-out: MIC Sp1/1
[5] = Table 2, IC50 against purified DHFR of strain 157/4696 (highly trimethoprim-resistant; clinical isolate), read-out: DHFR Sa1

| Structure (SMILES) | IC50 [1] [nM] | MIC Sa101 [2] [µg/mL] | IC50 [3, 5] [nM] | MIC Sp1/1 [4] [µg/mL] | MIC [2] [µg/mL] | IC50 [3] [nM] | MIC [4] [µg/mL] |
| --- | --- | --- | --- | --- | --- | --- | --- |
| CCCS(=O)(=O)Oc1cc(Cc2cnc(N)nc2N)cc(OCC)c1-c1ccc(N)c(C)c1 [Example 32-b] | 4.2 | 4 (≈ 8.48 µM) | 160 | 1 (≈ 2.12 µM) | – | – | – |
| CCCS(=O)(=O)Oc1cc(Cc2cnc(N)nc2N)cc(OCC)c1-c1cc(N)cc(F)c1 [Example 32-f, Propane-1-sulphonic acid 3′-amino-4-(2,4-diamino-pyrimidin-5-ylmethyl)-6-ethoxy-5′-fluoro-4-ylmethyl-biphenyl-2-yl ester] | 30 | 4 (≈ 8.41 µM) | 420 | 1 (≈ 2.1 µM) | – | – | – |
| CCOc1cc(Cc2cnc(N)nc2N)cc(OCC)c1-c1cnc(CN2CCOCC2)nc1 [Example 04-x, 5-[3,5-Diethoxy-4-(2-morpholin-4-ylmethyl-pyrimidin-5-yl)-benzyl]-pyrimidine-2,4-diamine] | 80 | – | – | – | 8 (≈ 17.2 µM) | 7900 | 8 (≈ 17.2 µM) |
| CCOc1cc(Cc2cnc(N)nc2N)cc(OS(=O)(=O)CC2CC2)c1-c1cccc(N)c1 [Example 38-a, Cyclopropylmethane-sulphonic acid 3′-amino-4-(2,4-diamino-pyrimidin-5-ylmethyl)-6ethoxy-biphenyl-2-yl ester] | 5.2 | – | – | – | 2 (≈ 4.26 µM) | 160 | 1 (≈ 2.13 µM) |
| CCOc1cc(Cc2cnc(N)nc2N)cc(OCC)c1-c1ccc(S(N)(=O)=O)cc1 [Example 04-o, 4′-(2,4-Diamino-gyrimidin-5-ylmethyl)-2′,6′-diethoxy-biphenyl-4-sulphonic acid amide] | 60 | – | – | – | 8 (≈ 18 µM) | 1300 | 8 (≈ 18 µM) |
| CCOc1cc(Cc2cnc(N)nc2N)cc(OS(=O)(=O)CC2CCCO2)c1-c1ccc(N)c(C)c1 (centres unmarked) [Example 42-c, Tetrahydrofuran-2-yl-methanesulphonic acid 4′-amino-4-(2,4-diamino-pyrimidin-5-ylmethyl)-6-ethoxy-3′-methyl-biphenyl-2-yl ester] | 6.3 | – | – | – | 8 (≈ 15.6 µM) | 300 | 1 (≈ 1.95 µM) |
| CCOc1cc(Cc2cnc(N)nc2N)cc(OS(=O)(=O)CC(C)(C)OC)c1-c1cccc(N)c1 [Example 39-a, (2-Methoxy-2-methyl-propane)-1-sulphonic acid 3′-amino-4-(2,4-diamino-pyrimidin-5-ylmethyl)-6-ethoxy-biphenyl-2-yl ester] | 4.2 | – | – | – | 4 (≈ 7.97 µM) | 390 | 1 (≈ 1.99 µM) |
| CCOc1cc(Cc2cnc(N)nc2N)cc(OS(=O)(=O)CC)c1-c1ccc(O)cc1 [Example 15-b, Ethanesulphonic acid 4-(2,4-diamino-pyrimidin-5-ylmethyl)-6-ethoxy-4′-hydroxy-biphenyl-2-yl ester] | 23 | – | – | – | 4 (≈ 9 µM) | 180 | 2 (≈ 4.5 µM) |
| CCOc1cc(Cc2cnc(N)nc2N)cc(OCC)c1-c1cccc([N+](=O)[O-])c1 [Example 02-z, 5-(2,6-Diethoxy-3′-nitro-biphenyl-4-ylmethyl)-pyrimidine-2,4-diamine] | 60 | – | – | – | 8 (≈ 19.5 µM) | 1600 | 8 (≈ 19.5 µM) |
| CCOc1cc(Cc2cnc(N)nc2N)cc(OS(=O)(=O)CC(C)(C)C)c1-c1ccc(O)cc1 [Example 15-h, 2,2-Dimethyl-propane-1-sulphonic acid 4-(2,4-diamino-pyrimidin-5-ylmethyl)-6-ethoxy-4′-hydroxa-biphenyl-2-yl ester] | 4.1 | – | – | – | 4 (≈ 8.22 µM) | 920 | 0.25 (≈ 0.514 µM) |
| CCOc1cc(Cc2cnc(N)nc2N)cc(OC2CCCC2)c1-c1ccc2c(c1)OCO2 [Example 10-d, 5-(4-Benzo[1,3]dioxol-5-yl-3-cyclopentyloxy-5-ethoxy-benzyl)-pyrimidine-2,4-diamine] | 42 | – | – | – | 4 (≈ 8.92 µM) | 1700 | 8 (≈ 17.8 µM) |
| CCOc1cc(Cc2cnc(N)nc2N)cc(OCC)c1-c1ccc(O)c(F)c1 [Example 02-ae, 4′-(2,4-Diamino-pyrimidin-5-ylmethyl)-2′,6′-diethoxy-3-fluoro-biphenyl-4-ol] | 150 | – | – | – | 4 (≈ 10 µM) | 1600 | 8 (≈ 20.1 µM) |
| CCCS(=O)(=O)Oc1cc(Cc2cnc(N)nc2N)cc(OCC)c1-c1ccc2c(c1)OCO2 [Example 17-d, Propane-1-sulphonic acid 2-benzo[1.3]dioxol-5-yl-5-(2,4-diamino-pyrimidin-5-ylmethyl)-3-ethoxy-phenyl ester] | 14 | – | – | – | 4 (≈ 8.22 µM) | 150 | 1 (≈ 2.06 µM) |
| CCOc1cc(Cc2cnc(N)nc2N)cc(OS(=O)(=O)CC)c1-c1ccc2c(c1)OCO2 [Example 17-b, Ethanesulphonic acid 2-benzo[1.3]dioxol-5-yl-5-(2,4-diamino-Iyrimidin-5-ylmethyl)-3-ethoxy-phenyl ester] | 38 | – | – | – | 4 (≈ 8.47 µM) | 370 | 2 (≈ 4.23 µM) |
| CCOc1cc(Cc2cnc(N)nc2N)cc(OS(C)(=O)=O)c1-c1cccc(N)c1 [Example 14-a, Methanesulphonic acid 3′-amino-4-(2,4-diamino-gyrimidin-5-ylmethyl)-6-ethoxy-biphenyl-2-yl ester] | 23 | – | – | – | 8 (≈ 18.6 µM) | 350 | 4 (≈ 9.31 µM) |
| CCOc1cc(Cc2cnc(N)nc2N)cc(OS(=O)(=O)N(C)C)c1-c1ccc(CN(C)CCF)cc1 [Example 66-, Dimethylsulphamic acid 4-(2,4-diamino-pyrimidin-5-ylmethyl)-6-ethoxy-4′-{[N-(2-fluoro-ethyl)-N-methyl-amino]-methyl}-binhenyl-2-yl ester] | 52 | – | – | – | 2 (≈ 3.75 µM) | 170 | 4 (≈ 7.51 µM) |
| CCOc1cc(Cc2cnc(N)nc2N)cc(OS(=O)(=O)C(C)C)c1-c1cc(N)cc(F)c1 [Example 33-c, Propane-2-sulphonic acid 3′-amino-4-(2,4-diamino-pyrimidin-5-ylmethyl)-6-ethoxy-5′-fluoro-4-ylmethyl-biphenyl-2-yl ester] | 14 | 2 (≈ 4.21 µM) | 100 | 2 (≈ 4.21 µM) | – | – | – |
| CCOc1cc(Cc2cnc(N)nc2N)cc(OS(=O)(=O)N(C)C)c1-c1ccc(N)cc1 [Example 22-a, Dimethylsulphamic acid 4′-amino-4-(2,4-diamino-pyrimidin-5-ylmethyl)-6-ethoxy-biphenyl-2-yl ester] | 3.1 | – | – | – | 2 (≈ 4.36 µM) | 48 | 1 (≈ 2.18 µM) |
| CCOc1cc(Cc2cnc(N)nc2N)cc(OCC)c1-c1cccc(OC)c1 [Example 05-a, 5-(2,6-Diethoxy-3′-methoxy-biphenyl-4-ylmethyl)-pyrimidine-2,4-diamine] | 46 | – | – | – | 8 (≈ 20.3 µM) | 6100 | 2 (≈ 5.07 µM) |
| CCOc1cc(Cc2cnc(N)nc2N)cc(OC(C)C)c1-c1ccc(OC)cc1 [Example 09-f, 5-(2-Ethoxy-6-isopropopy-4′-methoxy-biphenyl-4-ylmethyl)-pyrimidine-2,4-diamine] | 140 | – | – | – | 8 (≈ 19.6 µM) | 1900 | 8 (≈ 19.6 µM) |
| CCOc1cc(Cc2cnc(N)nc2N)cc(OS(=O)(=O)C(C)C)c1-c1ccc(C)nc1 [Example 33-g, Propane-2-sulphonic acid 5-(2,4-diamino-pyrimidin-5-ylmethyl)-3-ethoxy-2-(6-methyl-pyridin-3-yl)-phenyl ester] | 76 | – | – | – | 4 (≈ 8.74 µM) | 980 | 8 (≈ 17.5 µM) |
| CCOc1cc(Cc2cnc(N)nc2N)cc(OCC)c1-c1ccc(O)c(C)c1 [Example 02-s, 4′-(2,4-Diamino-pyrimidin-5-ylmethyl)-2′,6′-diethoxy-3-methyl-biphenyl-4-ol] | 83 | – | – | – | 4 (≈ 10.1 µM) | 2200 | 8 (≈ 20.3 µM) |
| CCOc1cc(Cc2cnc(N)nc2N)cc(OS(=O)(=O)C2CCC2)c1-c1ccc(N)c(F)c1 [Example 40-b, Cylobutane-sulphonic acid 4′-amino-4-(2,4-diamino-pyrimidin-5-ylmethyl)-6-ethoxy-3′-fluoro-4-ylmethyl-biphenyl-2-yl ester] | 27 | 2 (≈ 4.1 µM) | 310 | 1 (≈ 2.05 µM) | – | – | – |
| CCOc1cc(Cc2cnc(N)nc2N)cc(OCC)c1-c1ccc(NC(C)=O)c(C)c1 [Example 04-e, N-[4′-(2,4-Diamino-pyrimidin-5-ylmethyl)-2′,6′-diethoxy-3-methyl-biphenyl-4yl]-acetamide] | 30 | – | – | – | 8 (≈ 18.4 µM) | 1800 | 4 (≈ 9.18 µM) |
| CCOc1cc(Cc2cnc(N)nc2N)cc(OS(=O)(=O)N(CC)CC)c1-c1cccc(N)c1 [Example 19-h, Diethyl-sulphamic acid 3′-amino-4-(2,4-diamino-pyrimidin-5-ylmethyl)-6-ethoxy-biphenyl-2-yl ester] | 0.55 | – | – | – | 2 (≈ 4.11 µM) | 160 | 1 (≈ 2.06 µM) |
| CCOc1cc(Cc2cnc(N)nc2N)cc(OCC)c1-c1ccc(OCC(N)=O)cc1 [Example 46-, 2-[4′-(2,4-Diamino-pylimidin-5-ylmethyl)-2′,6′-diethoxy-biphenyl-4-yloxy]-acetamide] | 55 | – | – | – | 8 (≈ 18.3 µM) | 750 | 2 (≈ 4.57 µM) |
